Key:
Assay in all cases: relative viability (nuclei count vs DMSO), 5 days (fraction); higher = more cells survive
[1] = compound: CCc1cnn2c(NCc3ccc[n+]([O-])c3)cc(N3CCCC[C@H]3CCO)nc12 [Dinaciclib] + CC(=O)Nc1cccc(-n2c(=O)n(C3CC3)c(=O)c3c(Nc4ccc(I)cc4F)n(C)c(=O)c(C)c32)c1 [Trametinib] (partner 0.02 µM)
Procedure, shortened: (§1)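 Lung cancer cell lines, seeded in 1536-well plates, were treated the following day by pin tool with a single drug or with five library-drug doses (not always all listed) in √10 steps on top of a fixed anchor-drug dose. Cells were fixed and nuclei stained in one step after 5 days, and nuclei were counted. Relative viability is the nuclei count for treated wells divided by that for vehicle wells, reported as medians of duplicate plates.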

[2] = compound: CCc1cnn2c(NCc3ccc[n+]([O-])c3)cc(N3CCCC[C@H]3CCO)nc12 [Dinaciclib] + CC1(C)CCC(c2ccc(Cl)cc2)=C(CN2CCN(c3ccc(C(=O)NS(=O)(=O)c4ccc(N[C@H](CCN5CCOCC5)CSc5ccccc5)c(S(=O)(=O)C(F)(F)F)c4)cc3)CC2)C1 [Navitoclax] (partner 0.5 µM)
Procedure, shortened: as §1

[3] = compound: CCc1cnn2c(NCc3ccc[n+]([O-])c3)cc(N3CCCC[C@H]3CCO)nc12 [Dinaciclib] + COc1cccc2cc(-c3nc([C@H]4CC[C@H](C(=O)O)CC4)n4ncnc(N)c34)[nH]c12 [OSI-027] (partner 0.5 µM)
Procedure, shortened: as §1

[4] = compound: CCc1cnn2c(NCc3ccc[n+]([O-])c3)cc(N3CCCC[C@H]3CCO)nc12 [Dinaciclib] + Cc1cc(Nc2cc(N3CCN(C)CC3)nc(Sc3ccc(NC(=O)C4CC4)cc3)n2)n[nH]1 [Tozasertib] (partner 0.1 µM)
Procedure, shortened: as §1

[5] = compound: CCc1cnn2c(NCc3ccc[n+]([O-])c3)cc(N3CCCC[C@H]3CCO)nc12 [Dinaciclib] + O=C(c1cc(Cc2n[nH]c(=O)c3ccccc23)ccc1F)N1CCN(C(=O)C2CC2)CC1 [Olaparib] (partner 8 µM)
Procedure, shortened: as §1

Cell Line | relative viability ([1]; first compound 0.009487 µM) | relative viability ([1]; first compound 0.03 µM) | relative viability ([1]; first compound 0.09487 µM) | relative viability ([1]; first compound 0.3 µM) | relative viability ([2]; first compound 0.009487 µM) | relative viability ([2]; first compound 0.03 µM) | relative viability ([2]; first compound 0.09487 µM) | relative viability ([2]; first compound 0.3 µM) | relative viability ([3]; first compound 0.009487 µM) | relative viability ([3]; first compound 0.03 µM) | relative viability ([3]; first compound 0.09487 µM) | relative viability ([3]; first compound 0.3 µM) | relative viability ([4]; first compound 0.009487 µM) | relative viability ([4]; first compound 0.03 µM) | relative viability ([4]; first compound 0.09487 µM) | relative viability ([4]; first compound 0.3 µM) | relative viability ([5]; first compound 0.009487 µM) | relative viability ([5]; first compound 0.03 µM) | relative viability ([5]; first compound 0.09487 µM) | relative viability ([5]; first compound 0.3 µM)
NCI-H1666 | 0.731 | 0.431 | 0.57 | 0.49 | 0.848 | 0.186 | 0.227 | 0.244 | 0.857 | 0.484 | 0.375 | 0.346 | 0.586 | 0.284 | 0.275 | 0.276 | 0.774 | 0.553 | 0.484 | 0.488
NCI-H1734 | 0.595 | 0.278 | 0.146 | 0.136 | 0.714 | 0.122 | 0.07 | 0.0846 | 0.471 | 0.13 | 0.11 | 0.116 | 0.208 | 0.13 | 0.133 | 0.111 | 0.468 | 0.117 | 0.113 | 0.12
NCI-H1755 | 0.786 | 0.46 | 0.225 | 0.202 | 1.01 | 0.596 | 0.122 | 0.123 | 0.763 | 0.519 | 0.194 | 0.258 | 0.53 | 0.401 | 0.2 | 0.234 | 0.865 | 0.284 | 0.206 | 0.215
NCI-H1793 | 0.388 | 0.174 | 0.15 | 0.151 | 0.42 | 0.17 | 0.139 | 0.134 | 0.268 | 0.13 | 0.107 | 0.123 | 0.284 | 0.13 | 0.131 | 0.103 | 0.64 | 0.139 | 0.119 | 0.153
NCI-H1915 | 0.343 | 0.225 | 0.114 | 0.0978 | 0.759 | 0.267 | 0.058 | 0.0578 | 0.525 | 0.169 | 0.156 | 0.138 | 0.303 | 0.149 | 0.13 | 0.115 | 0.202 | 0.108 | 0.112 | 0.0974
NCI-H1944 | 0.462 | 0.161 | 0.152 | 0.144 | 1.19 | 0.67 | 0.177 | 0.169 | 0.413 | 0.156 | 0.139 | 0.141 | 0.233 | 0.134 | 0.132 | 0.127 | 0.395 | 0.126 | 0.182 | 0.108
NCI-H1975 | 0.343 | 0.187 | 0.134 | 0.0985 | 1.08 | 0.143 | 0.137 | 0.128 | 0.783 | 0.347 | 0.0912 | 0.0908 | 0.927 | 0.416 | 0.082 | 0.071 | 0.702 | 0.26 | 0.151 | 0.114
NCI-H1993 | 0.632 | 0.419 | 0.511 | 0.479 | 0.799 | 0.499 | – | 0.562 | 0.538 | 0.57 | 0.625 | 0.6 | 0.505 | 0.623 | 0.595 | 0.565 | 1.12 | 0.755 | 0.371 | 0.424
NCI-H2009 | 0.288 | 0.0748 | 0.0773 | 0.0564 | 1.01 | 0.515 | 0.0255 | 0.031 | 0.528 | 0.0935 | 0.11 | 0.107 | 0.599 | 0.231 | 0.112 | 0.106 | 0.584 | 0.254 | 0.0848 | 0.0797
NCI-H2023 | 0.382 | 0.078 | 0.0799 | 0.0821 | 0.929 | 0.0702 | 0.0635 | 0.0619 | 0.395 | 0.0919 | 0.052 | 0.067 | 0.446 | 0.0768 | 0.0628 | 0.0577 | 0.29 | 0.0582 | 0.0542 | 0.0574
NCI-H2085 | 0.439 | 0.259 | 0.187 | 0.183 | 1.14 | 0.201 | 0.154 | 0.172 | 0.748 | 0.264 | 0.243 | 0.196 | 0.802 | 0.373 | 0.3 | 0.308 | 0.838 | 0.321 | 0.257 | 0.263
NCI-H2087 | 0.143 | 0.11 | 0.101 | 0.107 | 0.729 | 0.0652 | 0.0695 | 0.0583 | 0.529 | 0.0975 | 0.11 | 0.0895 | 0.222 | 0.0979 | 0.0821 | 0.0868 | 0.639 | 0.0883 | 0.0953 | 0.112
NCI-H2126 | 0.53 | 0.41 | 0.165 | 0.175 | 0.868 | 0.607 | 0.221 | 0.197 | 0.784 | 0.381 | 0.251 | 0.204 | 0.799 | 0.218 | 0.222 | 0.19 | 0.89 | 0.449 | 0.186 | 0.169
NCI-H2170 | 0.885 | 0.147 | 0.133 | 0.131 | 0.477 | 0.155 | 0.139 | 0.19 | 0.741 | 0.156 | 0.152 | 0.14 | 0.721 | 0.171 | 0.144 | 0.143 | 0.429 | 0.11 | 0.0975 | 0.113
NCI-H2228 | 0.496 | 0.11 | 0.0915 | 0.116 | 0.882 | 0.174 | 0.0319 | 0.0438 | 0.522 | 0.167 | 0.0767 | 0.124 | 0.333 | 0.137 | 0.0995 | 0.0912 | 0.793 | 0.181 | 0.101 | 0.143
NCI-H2347 | 0.301 | 0.247 | 0.159 | 0.154 | 0.779 | 0.167 | 0.143 | 0.143 | 0.437 | 0.204 | 0.144 | 0.151 | 0.425 | 0.17 | 0.138 | 0.174 | 0.523 | 0.241 | 0.216 | 0.209
